# What was measured:
# [1] = target: T1, Histone-lysine N-methyltransferase EZH2 (Homo sapiens, UniProt Q15910); assay: Inhibition of EZH2 (unknown origin)
# Target sequence in this assay (Q15910 whole entry): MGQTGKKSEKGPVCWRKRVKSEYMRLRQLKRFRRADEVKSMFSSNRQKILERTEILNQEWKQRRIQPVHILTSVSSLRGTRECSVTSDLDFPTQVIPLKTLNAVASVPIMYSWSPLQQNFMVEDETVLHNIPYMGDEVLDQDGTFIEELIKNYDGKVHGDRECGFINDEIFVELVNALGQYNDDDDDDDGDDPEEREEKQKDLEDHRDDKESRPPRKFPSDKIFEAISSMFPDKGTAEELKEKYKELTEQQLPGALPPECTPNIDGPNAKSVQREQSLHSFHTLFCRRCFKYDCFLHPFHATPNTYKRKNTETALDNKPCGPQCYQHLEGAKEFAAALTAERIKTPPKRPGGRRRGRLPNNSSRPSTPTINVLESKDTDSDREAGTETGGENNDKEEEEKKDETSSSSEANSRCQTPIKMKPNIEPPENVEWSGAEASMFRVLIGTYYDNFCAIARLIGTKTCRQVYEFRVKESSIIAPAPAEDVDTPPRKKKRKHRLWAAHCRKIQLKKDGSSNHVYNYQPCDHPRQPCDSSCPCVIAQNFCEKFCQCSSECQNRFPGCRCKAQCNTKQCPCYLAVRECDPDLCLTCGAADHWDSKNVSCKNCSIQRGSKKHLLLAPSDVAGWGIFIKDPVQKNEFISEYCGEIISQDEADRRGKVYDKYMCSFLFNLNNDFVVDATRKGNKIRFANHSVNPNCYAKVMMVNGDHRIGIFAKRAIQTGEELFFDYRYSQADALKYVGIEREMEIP
# [2] = target: Protein arginine N-methyltransferase 5 (Homo sapiens, UniProt O14744); assay: Inhibition of PRMT5 (unknown origin)
# [3] = target: T2, Histone-lysine N-methyltransferase EHMT2 (Homo sapiens, UniProt Q96KQ7); assay: Inhibition of G9a (unknown origin)
# T2 sequence (Q96KQ7 whole entry): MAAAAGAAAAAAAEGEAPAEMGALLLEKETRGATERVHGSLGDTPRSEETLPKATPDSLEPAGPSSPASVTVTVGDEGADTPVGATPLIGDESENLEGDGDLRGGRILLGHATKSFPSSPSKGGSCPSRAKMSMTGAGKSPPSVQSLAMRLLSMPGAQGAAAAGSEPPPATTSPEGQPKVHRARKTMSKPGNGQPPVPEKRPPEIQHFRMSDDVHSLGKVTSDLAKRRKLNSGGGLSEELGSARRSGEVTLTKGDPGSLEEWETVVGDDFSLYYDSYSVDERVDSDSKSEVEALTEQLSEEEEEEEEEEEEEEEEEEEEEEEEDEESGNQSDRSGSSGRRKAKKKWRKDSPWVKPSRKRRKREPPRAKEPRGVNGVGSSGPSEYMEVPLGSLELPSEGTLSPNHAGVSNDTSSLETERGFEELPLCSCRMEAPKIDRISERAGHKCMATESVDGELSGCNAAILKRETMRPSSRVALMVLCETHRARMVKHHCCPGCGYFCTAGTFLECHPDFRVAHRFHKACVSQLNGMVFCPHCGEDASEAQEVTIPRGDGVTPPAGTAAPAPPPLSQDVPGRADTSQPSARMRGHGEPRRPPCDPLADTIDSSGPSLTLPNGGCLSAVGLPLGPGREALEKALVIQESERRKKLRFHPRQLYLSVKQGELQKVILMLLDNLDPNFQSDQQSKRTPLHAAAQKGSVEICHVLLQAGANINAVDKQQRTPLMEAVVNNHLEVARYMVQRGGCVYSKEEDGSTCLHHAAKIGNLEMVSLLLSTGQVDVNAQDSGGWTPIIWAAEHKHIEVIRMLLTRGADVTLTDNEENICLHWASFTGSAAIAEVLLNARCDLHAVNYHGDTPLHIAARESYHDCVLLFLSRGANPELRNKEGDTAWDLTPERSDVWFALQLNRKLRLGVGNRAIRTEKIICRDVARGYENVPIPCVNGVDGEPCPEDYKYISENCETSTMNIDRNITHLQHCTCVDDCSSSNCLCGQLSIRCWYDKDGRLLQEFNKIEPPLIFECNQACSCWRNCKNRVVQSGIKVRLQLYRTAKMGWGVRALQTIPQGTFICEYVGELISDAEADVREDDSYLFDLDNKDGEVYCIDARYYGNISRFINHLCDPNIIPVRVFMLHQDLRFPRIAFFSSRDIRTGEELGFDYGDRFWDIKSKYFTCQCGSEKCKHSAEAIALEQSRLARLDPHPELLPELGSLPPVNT
# [4] = target: T3, Histone-arginine methyltransferase CARM1 (Homo sapiens, UniProt Q86X55); assay: Inhibition of PRMT4 (unknown origin)
# T3 sequence (Q86X55 whole entry): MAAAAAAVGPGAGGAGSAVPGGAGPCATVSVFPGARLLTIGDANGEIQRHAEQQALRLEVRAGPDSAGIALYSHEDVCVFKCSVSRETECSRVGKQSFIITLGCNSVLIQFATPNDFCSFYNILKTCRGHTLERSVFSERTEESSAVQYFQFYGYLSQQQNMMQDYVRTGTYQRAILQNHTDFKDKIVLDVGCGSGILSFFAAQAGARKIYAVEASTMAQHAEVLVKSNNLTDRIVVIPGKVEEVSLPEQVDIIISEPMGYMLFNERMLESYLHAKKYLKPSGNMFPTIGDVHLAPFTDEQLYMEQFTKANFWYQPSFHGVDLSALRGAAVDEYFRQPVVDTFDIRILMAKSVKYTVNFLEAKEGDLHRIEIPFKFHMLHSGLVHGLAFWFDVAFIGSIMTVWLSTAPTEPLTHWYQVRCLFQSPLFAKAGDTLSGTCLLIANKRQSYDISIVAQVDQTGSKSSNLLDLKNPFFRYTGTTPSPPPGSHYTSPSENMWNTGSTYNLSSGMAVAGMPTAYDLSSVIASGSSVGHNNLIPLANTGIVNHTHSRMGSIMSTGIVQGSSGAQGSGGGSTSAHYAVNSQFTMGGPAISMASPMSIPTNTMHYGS
# [5] = target: T4, Histone-lysine N-methyltransferase, H3 lysine-79 specific (Homo sapiens, UniProt Q8TEK3); assay: Inhibition of DOT1L (unknown origin)
# cells = conditions: Homo sapiens, MCF-10A
# Description: Inhibition of methylation of H3K79 in human MCF-10A cells by fluorescence assay
# [6] = target: T5, Histone-lysine N-methyltransferase SETD7 (Homo sapiens, UniProt Q8WTS6); assay: Inhibition of SET7 (unknown origin)
# T5 sequence (Q8WTS6 whole entry): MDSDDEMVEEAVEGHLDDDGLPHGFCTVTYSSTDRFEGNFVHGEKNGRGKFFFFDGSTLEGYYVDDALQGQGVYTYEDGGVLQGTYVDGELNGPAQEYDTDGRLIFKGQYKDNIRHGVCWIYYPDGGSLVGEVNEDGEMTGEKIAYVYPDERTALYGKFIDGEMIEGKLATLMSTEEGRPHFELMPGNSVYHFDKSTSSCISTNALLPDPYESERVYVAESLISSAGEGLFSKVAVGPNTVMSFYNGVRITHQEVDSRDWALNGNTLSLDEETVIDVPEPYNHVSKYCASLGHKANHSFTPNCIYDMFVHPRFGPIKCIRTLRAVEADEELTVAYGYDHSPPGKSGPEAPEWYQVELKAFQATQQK
# [7] = target: T1, Histone-lysine N-methyltransferase EZH2; assay: Binding affinity to EZH2 (unknown origin) assessed as inhibition constant
# Target sequence in this assay (Q15910 whole entry): as the sequence (Q15910 whole entry) above
# MV4-11 = assay: Antiproliferative activity against human MV4-11 cells; format: functional, cell-based
# [8] = target: T4, Histone-lysine N-methyltransferase, H3 lysine-79 specific; assay: Inhibition of human recombinant DOT1L by methyltransferase-Glo Bioluminescent assay
# [9] = target: Protein arginine N-methyltransferase 1 (Homo sapiens, UniProt Q99873); assay: Inhibition of PRMT1 (unknown origin)
# [10] = target: T6, Histone-lysine N-methyltransferase EHMT1 (Homo sapiens, UniProt Q9H9B1); assay: Inhibition of EHMT1 (unknown origin)
# T6 sequence (Q9H9B1 whole entry): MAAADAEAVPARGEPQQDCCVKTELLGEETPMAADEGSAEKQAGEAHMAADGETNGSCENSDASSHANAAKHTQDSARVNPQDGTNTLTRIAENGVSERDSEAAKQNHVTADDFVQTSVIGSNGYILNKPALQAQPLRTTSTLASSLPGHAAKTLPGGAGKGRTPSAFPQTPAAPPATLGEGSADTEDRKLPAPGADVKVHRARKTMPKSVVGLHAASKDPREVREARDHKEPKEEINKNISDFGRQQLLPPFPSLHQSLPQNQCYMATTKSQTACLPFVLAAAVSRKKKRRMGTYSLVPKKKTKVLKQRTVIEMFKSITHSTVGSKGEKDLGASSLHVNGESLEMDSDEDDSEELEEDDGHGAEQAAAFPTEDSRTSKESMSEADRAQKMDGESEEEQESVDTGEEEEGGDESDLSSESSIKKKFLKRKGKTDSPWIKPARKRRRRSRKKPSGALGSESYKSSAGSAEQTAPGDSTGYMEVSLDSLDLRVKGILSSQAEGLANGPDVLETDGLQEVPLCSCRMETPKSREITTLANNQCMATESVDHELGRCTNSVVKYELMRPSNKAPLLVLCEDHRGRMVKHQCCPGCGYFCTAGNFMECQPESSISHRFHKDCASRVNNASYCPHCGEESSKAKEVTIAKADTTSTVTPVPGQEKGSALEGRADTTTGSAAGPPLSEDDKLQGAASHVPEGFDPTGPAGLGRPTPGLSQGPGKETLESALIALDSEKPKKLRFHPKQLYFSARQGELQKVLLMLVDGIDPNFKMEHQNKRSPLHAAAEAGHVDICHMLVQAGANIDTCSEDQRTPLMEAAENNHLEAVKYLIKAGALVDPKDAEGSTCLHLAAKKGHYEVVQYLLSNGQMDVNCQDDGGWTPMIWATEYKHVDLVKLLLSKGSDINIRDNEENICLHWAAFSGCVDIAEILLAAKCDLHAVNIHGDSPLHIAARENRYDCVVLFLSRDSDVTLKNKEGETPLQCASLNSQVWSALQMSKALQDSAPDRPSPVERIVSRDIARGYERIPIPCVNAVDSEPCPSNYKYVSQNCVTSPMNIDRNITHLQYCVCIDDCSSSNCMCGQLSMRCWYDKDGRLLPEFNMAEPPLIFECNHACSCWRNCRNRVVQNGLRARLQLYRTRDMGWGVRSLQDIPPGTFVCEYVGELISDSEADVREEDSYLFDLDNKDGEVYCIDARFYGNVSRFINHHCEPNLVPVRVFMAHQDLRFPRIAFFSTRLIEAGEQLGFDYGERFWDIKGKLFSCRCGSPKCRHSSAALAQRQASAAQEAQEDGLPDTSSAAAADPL
# [11] = target: T7, Histone-lysine N-methyltransferase EZH2 (Homo sapiens, UniProt Q15910, Y641N); assay: Binding affinity to EZH2 Y641N mutant (unknown origin) assessed as inhibition constant
# [12] = Aqueous solubility of the compound; format: physicochemical; conditions: buffer
# [13] = target: T1, Histone-lysine N-methyltransferase EZH2; assay: Inhibition of EZH2 (unknown origin) assessed as residence time
# Target sequence in this assay (Q15910 whole entry, looked up): as the sequence (Q15910 whole entry) above
# [14] = target: Histone-lysine N-methyltransferase SETD2 (Homo sapiens, UniProt Q9BYW2); assay: Inhibition of SETD2 (unknown origin)
# [15] = target: T1, Histone-lysine N-methyltransferase EZH2; assay: Inhibition of wild type EZH2 (unknown origin)
# Target sequence in this assay (Q15910 whole entry): as the sequence (Q15910 whole entry) above
# [16] = target: T7, Histone-lysine N-methyltransferase EZH2; assay: Inhibition of EZH2 Y641N mutant (unknown origin)
# T4 sequence (Q8TEK3 whole entry): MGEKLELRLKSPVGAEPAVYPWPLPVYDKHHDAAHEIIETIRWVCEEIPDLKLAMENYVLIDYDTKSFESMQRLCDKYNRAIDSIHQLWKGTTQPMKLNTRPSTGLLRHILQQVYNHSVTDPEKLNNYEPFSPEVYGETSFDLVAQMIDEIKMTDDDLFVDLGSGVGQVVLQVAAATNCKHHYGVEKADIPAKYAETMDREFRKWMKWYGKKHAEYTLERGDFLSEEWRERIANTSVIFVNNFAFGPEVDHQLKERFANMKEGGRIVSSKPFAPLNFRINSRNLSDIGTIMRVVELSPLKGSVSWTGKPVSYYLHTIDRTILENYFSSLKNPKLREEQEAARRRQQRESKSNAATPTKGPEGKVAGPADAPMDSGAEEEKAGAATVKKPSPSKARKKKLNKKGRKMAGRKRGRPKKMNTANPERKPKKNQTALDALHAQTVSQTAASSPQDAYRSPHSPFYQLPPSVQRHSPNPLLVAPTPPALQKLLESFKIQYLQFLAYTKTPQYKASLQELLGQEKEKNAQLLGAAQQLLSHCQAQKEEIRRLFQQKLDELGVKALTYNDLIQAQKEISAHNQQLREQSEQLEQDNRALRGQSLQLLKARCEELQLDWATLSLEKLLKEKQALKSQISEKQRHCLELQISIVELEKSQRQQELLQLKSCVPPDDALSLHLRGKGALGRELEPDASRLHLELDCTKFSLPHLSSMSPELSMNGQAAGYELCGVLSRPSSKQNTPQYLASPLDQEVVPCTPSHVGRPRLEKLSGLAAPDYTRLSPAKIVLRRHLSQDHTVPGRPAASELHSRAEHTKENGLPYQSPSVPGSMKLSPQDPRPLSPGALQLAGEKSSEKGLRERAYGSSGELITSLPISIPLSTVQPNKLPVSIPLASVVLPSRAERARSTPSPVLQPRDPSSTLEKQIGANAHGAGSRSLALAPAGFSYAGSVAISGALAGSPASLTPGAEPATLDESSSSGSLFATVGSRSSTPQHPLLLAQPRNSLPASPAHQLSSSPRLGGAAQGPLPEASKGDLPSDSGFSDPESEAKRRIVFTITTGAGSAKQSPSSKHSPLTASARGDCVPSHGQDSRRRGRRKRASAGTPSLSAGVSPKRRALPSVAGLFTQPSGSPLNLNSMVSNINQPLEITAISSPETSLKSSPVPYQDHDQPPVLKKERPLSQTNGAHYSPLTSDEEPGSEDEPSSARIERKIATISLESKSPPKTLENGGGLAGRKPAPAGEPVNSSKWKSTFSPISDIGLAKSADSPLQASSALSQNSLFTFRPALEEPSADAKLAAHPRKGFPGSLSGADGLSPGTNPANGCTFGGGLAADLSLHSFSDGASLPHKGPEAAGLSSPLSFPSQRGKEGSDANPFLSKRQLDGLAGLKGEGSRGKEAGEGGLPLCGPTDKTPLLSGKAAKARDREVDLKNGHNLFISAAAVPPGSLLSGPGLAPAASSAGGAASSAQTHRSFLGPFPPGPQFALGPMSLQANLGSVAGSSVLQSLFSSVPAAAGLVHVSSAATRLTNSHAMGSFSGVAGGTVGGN
# Protein arginine N-methyltransferase 5, sequence (O14744 whole entry): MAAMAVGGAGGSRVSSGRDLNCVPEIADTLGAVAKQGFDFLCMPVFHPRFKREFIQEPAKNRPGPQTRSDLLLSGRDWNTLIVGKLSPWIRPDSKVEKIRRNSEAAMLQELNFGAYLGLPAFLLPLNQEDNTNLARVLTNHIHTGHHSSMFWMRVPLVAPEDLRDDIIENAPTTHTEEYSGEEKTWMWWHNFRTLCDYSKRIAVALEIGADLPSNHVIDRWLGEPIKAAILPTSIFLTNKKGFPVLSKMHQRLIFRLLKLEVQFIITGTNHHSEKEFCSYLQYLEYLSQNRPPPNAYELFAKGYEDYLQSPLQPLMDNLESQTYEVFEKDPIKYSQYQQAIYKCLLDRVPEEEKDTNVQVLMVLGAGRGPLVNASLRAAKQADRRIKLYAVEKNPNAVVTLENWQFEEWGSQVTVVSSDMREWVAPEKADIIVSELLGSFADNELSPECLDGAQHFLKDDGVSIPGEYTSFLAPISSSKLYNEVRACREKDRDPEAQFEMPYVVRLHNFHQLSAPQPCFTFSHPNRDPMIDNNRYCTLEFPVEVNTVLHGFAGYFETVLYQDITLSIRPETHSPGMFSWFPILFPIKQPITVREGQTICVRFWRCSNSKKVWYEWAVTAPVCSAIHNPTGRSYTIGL
# T7 sequence (Q15910 whole entry Y641N): as the sequence (Q15910 whole entry) above, with Y641N counted along it
# Protein arginine N-methyltransferase 1, sequence (Q99873 whole entry): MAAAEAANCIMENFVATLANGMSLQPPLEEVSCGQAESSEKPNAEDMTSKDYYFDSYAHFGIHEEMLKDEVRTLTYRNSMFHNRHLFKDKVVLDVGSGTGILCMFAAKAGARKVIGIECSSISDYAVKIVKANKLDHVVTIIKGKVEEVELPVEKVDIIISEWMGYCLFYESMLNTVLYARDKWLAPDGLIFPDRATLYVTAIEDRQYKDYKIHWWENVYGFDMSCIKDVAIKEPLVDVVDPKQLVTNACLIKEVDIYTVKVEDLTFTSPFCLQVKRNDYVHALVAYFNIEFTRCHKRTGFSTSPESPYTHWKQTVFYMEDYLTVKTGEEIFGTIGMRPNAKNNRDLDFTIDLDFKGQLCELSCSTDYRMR
smiles,measurement,setting,value
Nc1ncnc2c1ncn2[C@H]1O[C@@H](CSCC[C@H](N)C(=O)NCc2cc(-c3ccccc3)[nH]n2)[C@H](O)[C@@H]1O,IC50,[1],270 nM
Nc1cccc(CCC[C@@H]2C[C@H](n3ccc4c(N)ncnc43)[C@@H](O)[C@H]2O)n1,IC50,[2],0.4 nM
Nc1ncnc2c1ncn2[C@H]1O[C@@H](CN(CCI)CCC[C@H](N)C(=O)O)[C@H](O)[C@@H]1O,IC50,[3],1800 nM
same,IC50,[4],1100 nM
CCCc1cc(C)[nH]c(=O)c1CNC(=O)c1cc(-c2ccc(N3CCN(C(C)C)CC3)nc2)cc2c1cnn2C(C)C,IC50,[1],< 10 nM
CNc1ccnc(Nc2ccc3sc(Cl)c(-c4cc(-c5c(C)ncn(C)c5=O)cnc4Cl)c3c2)n1,IC50,[5],1400 nM
same,IC50,cells,23 nM
COc1cccc(C(=O)NCc2c(C)cc(C)[nH]c2=O)c1Cl,IC50,[1],7.2 nM
Cc1cc(C)c(CNC(=O)c2c(C)n([C@H](C)C3CCN(CC(F)(F)F)CC3)c3ccccc23)c(=O)[nH]1,IC50,[1],22 nM
CCCCCCNCCN(CC[C@H](N)C(=O)O)C[C@@H]1O[C@H](n2cnc3c(N)ncnc32)[C@@H](O)[C@H]1O,IC50,[6],> 10000 nM
NCCCN(CCCNc1ccccn1)C[C@@H]1O[C@H](n2cnc3c(N)ncnc32)[C@@H](O)[C@H]1O,IC50,[4],90 nM
Cc1coc2c1C(=O)C(=O)c1c-2ccc2c1CC[C@@H](O)[C@]2(C)O,Ki,[7],194 nM
same,IC50,[1],550 nM
NC(=O)CNC(=O)Nc1ccc2ccn(-c3ccccc3Cl)c2c1,IC50,[5],9000 nM
Cc1cc(Nc2ccc3nc(C)cc(N)c3c2)nc(Nc2ccc3nc(C)cc(N)c3c2)n1,IC50,MV4-11,37100 nM
CNc1ccnc(Nc2ccc3cc(C)n(-c4ccccc4Oc4cnc5c(c4)ncn5C)c3c2)n1,IC50,cells,16 nM
CC(C)(C)c1ccc(CC(=O)c2ncn(CC(=O)NCCn3ccc4c(N)ncnc43)n2)cc1,IC50,[5],1000 nM
CC(C)N(CCCNC(=O)Nc1ccc(C(C)(C)C)cc1)C[C@@H]1O[C@H](n2cc(Br)c3c(N)ncnc32)[C@@H](O)[C@H]1O,IC50,cells,8.8 nM
Nc1ncnc2c1ccn2[C@H]1O[C@@H]([C@H](O)c2ccccc2)[C@H](O)[C@@H]1O,IC50,[2],9.5 nM
COc1cc([C@H]2Oc3c(O)cc(CCCO)cc3[C@@H]2CO)ccc1O[C@@H]1O[C@@H](C)[C@@H](O)[C@@H](O)[C@H]1O,IC50,[8],399 nM
N=C(N)NCCCN(CCCN)C[C@@H]1O[C@H](n2cnc3c(N)ncnc32)[C@@H](O)[C@H]1O,IC50,[9],7200 nM
same,IC50,[4],2300 nM
CCNC(=O)NCCCSC[C@@H]1O[C@H](n2cnc3c(N)ncnc32)[C@@H](O)[C@H]1O,IC50,[2],6000 nM
Nc1ncnc2c1ncn2[C@H]1O[C@@H](C[C@H](N)CC[C@H](N)C(=O)O)[C@H](O)[C@@H]1O,IC50,[10],513000 nM
same,IC50,[5],26000 nM
same,IC50,[6],2500 nM
Nc1ncnc2ccc(N(CC#CC(O)c3nccn3CCO)c3c(Cl)cccc3Cl)cc12 (stereo not drawn),IC50,[5],14000 nM
CO[C@@H](c1cc(Cl)c2c(c1Cl)C(=O)N(Cc1c(C)cc(C)[nH]c1=O)CC2)C1COC1,Ki,[11],< 0.1 nM
same,solubility,[12],315 µg/mL
CSc1cc(C)[nH]c(=O)c1CNC(=O)c1c(C)n([C@@H](C)[C@H]2CC[C@H](N3CC(OC4CC4)C3)CC2)c2ccccc12,TIME,[13],57 h
same,IC50,[1],0.057 nM
Cc1cc(C)c(CN2CCc3c(Cl)cc(-c4c(C)noc4C)c(Cl)c3C2=O)c(=O)[nH]1,IC50,[1],< 5 nM
same,solubility,[12],2 µg/mL
CN(CCCNC(=O)CNC(=O)Nc1ccc2sc(Cl)c(-c3cccnc3)c2c1)[C@@H]1CCCC(c2ncnc3[nH]ccc23)C1 (stereo partly drawn),IC50,[5],< 100 nM
CCCN(CC[C@H](N)C(=O)O)C[C@@H]1O[C@H](n2cnc3c(N)ncnc32)[C@@H](O)[C@H]1O,IC50,[14],800 nM
CCC(CC)n1ncc2c(C(=O)NCc3c(C)cc(C)[nH]c3=O)cc(C#N)cc21,IC50,[15],15 nM
same,IC50,[16],13 nM
CCC(CC)n1ncc2c(C(=O)NCc3c(C)cc(C)[nH]c3=O)cc(C3CC3)nc21,IC50,[1],149 nM
